Source: patent US20130303535A1, “NOVEL BICYCLIC HETEROCYCLIC COMPOUND” (priority 2008, published 2013)

molecular target: TTX resistant Na channel of human SNS-expressing cell (SNS) (Homo sapiens, UniProt Q9Y5Y9); assay: cell-based; conditions: CHO-K1, compound concentration 12.5 μM; read-out: SNS inhibitory rate (%)
Sequence (Q9Y5Y9 whole entry, looked up): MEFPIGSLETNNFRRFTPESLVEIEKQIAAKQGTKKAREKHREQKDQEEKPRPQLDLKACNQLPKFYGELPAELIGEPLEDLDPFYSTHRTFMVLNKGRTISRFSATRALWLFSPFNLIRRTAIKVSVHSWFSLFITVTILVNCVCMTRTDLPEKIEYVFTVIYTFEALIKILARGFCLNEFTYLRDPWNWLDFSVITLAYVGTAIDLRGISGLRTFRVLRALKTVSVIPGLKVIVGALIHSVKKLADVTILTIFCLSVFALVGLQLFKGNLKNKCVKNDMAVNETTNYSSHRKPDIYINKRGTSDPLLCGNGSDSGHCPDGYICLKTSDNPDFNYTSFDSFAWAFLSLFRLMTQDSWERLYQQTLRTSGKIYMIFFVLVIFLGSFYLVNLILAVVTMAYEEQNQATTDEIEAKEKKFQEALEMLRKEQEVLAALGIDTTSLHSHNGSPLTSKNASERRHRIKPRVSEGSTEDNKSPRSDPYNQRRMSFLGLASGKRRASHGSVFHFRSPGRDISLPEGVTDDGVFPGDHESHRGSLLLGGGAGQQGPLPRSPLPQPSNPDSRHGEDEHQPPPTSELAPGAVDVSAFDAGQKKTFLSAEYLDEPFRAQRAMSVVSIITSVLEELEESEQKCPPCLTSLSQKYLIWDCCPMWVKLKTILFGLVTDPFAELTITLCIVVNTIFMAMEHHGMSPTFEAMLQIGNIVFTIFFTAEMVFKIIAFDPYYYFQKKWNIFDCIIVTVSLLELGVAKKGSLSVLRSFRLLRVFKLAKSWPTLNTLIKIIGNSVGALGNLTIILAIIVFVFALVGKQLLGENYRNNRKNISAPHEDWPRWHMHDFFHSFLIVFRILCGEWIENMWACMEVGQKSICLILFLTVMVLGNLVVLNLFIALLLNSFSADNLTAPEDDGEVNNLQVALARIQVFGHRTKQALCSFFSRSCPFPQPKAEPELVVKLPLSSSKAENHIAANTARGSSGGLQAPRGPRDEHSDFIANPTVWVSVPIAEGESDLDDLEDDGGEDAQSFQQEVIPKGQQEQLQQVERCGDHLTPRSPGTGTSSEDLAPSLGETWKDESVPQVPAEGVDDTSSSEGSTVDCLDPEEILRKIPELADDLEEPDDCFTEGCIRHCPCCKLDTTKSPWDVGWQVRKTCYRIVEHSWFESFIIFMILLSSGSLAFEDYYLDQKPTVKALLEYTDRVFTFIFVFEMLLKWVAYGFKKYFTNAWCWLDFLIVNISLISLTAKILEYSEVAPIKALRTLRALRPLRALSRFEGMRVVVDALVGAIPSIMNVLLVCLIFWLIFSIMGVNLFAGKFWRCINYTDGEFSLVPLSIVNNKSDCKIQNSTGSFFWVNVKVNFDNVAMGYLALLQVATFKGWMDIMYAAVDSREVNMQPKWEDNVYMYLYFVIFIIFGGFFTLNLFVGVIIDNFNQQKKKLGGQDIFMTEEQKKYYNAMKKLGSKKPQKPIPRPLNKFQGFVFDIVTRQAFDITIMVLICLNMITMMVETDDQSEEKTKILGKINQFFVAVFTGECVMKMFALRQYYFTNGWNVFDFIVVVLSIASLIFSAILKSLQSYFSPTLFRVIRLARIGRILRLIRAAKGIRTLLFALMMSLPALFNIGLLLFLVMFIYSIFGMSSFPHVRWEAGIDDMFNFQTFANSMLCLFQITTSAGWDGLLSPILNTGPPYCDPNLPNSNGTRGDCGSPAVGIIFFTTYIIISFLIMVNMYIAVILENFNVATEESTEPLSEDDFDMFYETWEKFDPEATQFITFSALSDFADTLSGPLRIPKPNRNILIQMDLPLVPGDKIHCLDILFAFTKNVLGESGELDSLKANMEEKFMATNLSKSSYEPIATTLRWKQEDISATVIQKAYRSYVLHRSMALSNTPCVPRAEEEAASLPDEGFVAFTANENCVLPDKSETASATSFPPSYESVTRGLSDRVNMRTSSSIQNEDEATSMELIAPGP

Compound | inhibition at 12.5 µM [%]
C[C@H](NCc1nc2ccc(Oc3ccccc3)cc2n1C1CCC1)C(N)=O [Example 11] | 63
C[C@H](NCc1nc2ccc(Oc3ccc(OC(F)(F)F)cc3)cc2n1C1CC1)C(N)=O [Example 100] | 72.1
CC(C)(NCc1nc2ccc(Oc3ccc(F)cc3F)cc2n1C[C@@H]1CCCO1)C(N)=O [Example 137] | 90.7
CCOCCn1c(CN[C@@H](C)C(N)=O)nc2ccc(Oc3ccc(C(F)(F)F)cc3)cc21 [Example 46] | 95.5
CCn1c(CN[C@@H](C)C(N)=O)nc2cc(F)c(-c3ccc(F)cc3)cc21 [Example 111, N^2-{[1-ethyl-5-fluoro-6-(4-fluorophenyl)-1H-benzimidazol-2-yl]methyl}-L-alaninamide] | 88.4
CCOCCn1c(CN[C@@H](C)C(N)=O)nc2cc(Cl)c(-c3ccc(C)cc3)cc21 [Example 178] | 16
CC(C)NC(=O)N1CCC(n2c(CN[C@@H](C)C(N)=O)nc3ccc(Oc4ccc(F)cc4)cc32)CC1 [Example 84, 4-[2-({[(2S)-1-amino-1-oxopropan-2-yl]amino}methyl)-6-(4-fluorophenoxy)-1H-benzimidazol-1-yl]-N-(propan-2-yl)piperidine-1-carboxamide] | 76.8
CCOCCn1c(CN[C@@H](C)C(N)=O)nc2ccc(-c3ccc(C)cc3F)cc21 [Example 165] | 100
CCn1c(CNC(C)(C)C(N)=O)nc2ccc(Oc3ccc(C)cc3)cc21 [Example 135] | 57.8
CCOCCn1c(CN[C@@H](C)C(=O)N2CCNC(C#N)C2)nc2ccc(Oc3ccc(F)cc3)cc21 (some centres unmarked) [Example 107] | 83.7
Cc1ccc(Oc2ccc3nc(CN[C@@H](C)C(N)=O)n(C[C@H]4CCCO4)c3c2)cc1 [Example 131] | 55.9
CCn1c(CNC(C)(C)C(N)=O)nc2cc(F)c(-c3ccc(F)cc3)cc21 [Example 187] | 53.3
CCOCCCn1c(CN[C@@H](C)C(N)=O)nc2ccc(Oc3ccc(F)cc3)cc21 [Example 47] | 86.6
CCOCCn1c(CN[C@@H](C)C(N)=O)nc2cc(Cl)c(-c3ccc(OC(F)(F)F)cc3)cc21 [Example 181] | 0
CCOCCn1c(CN[C@@H](C)C(N)=O)nc2ccc(Oc3cc(F)c(F)cc3F)cc21 [Example 55] | 89.4
COCCn1c(CNCC(N)=O)nc2ccc(Oc3ccc(F)cc3)cc21 [Example 63] | 9.2
CCOCCn1c(CN[C@H](C(N)=O)C(C)C)nc2ccc(Oc3ccc(F)cc3)cc21 [Example 4, N^2-{[1-(2-ethoxyethyl)-6-(4-fluorophenoxy)-1H-benzimidazol-2-yl]methyl}-L-valinamide] | 66.8
